# Experimental data reported in ChEMBL document CHEMBL3792311, “In vitro and in vivo activity of ML302F: a thioenolate inhibitor of VIM-subfamily metallo -lactamases” (Medchemcomm, 2016).
# Calls of active or inactive are those of the source. The rule behind the calls is not given here.
# Assays:
# [1] = tested on: Pseudomonas aeruginosa; assay: Potentiation of meropenem-induced antibacterial activity against VIM2 carbapenemase producing multidrug-resistant Pseudomonas aeruginosa 14 clinical isolate assessed as MIC of meropenem at 1:8 meropenem:compound ratio by broth microtiter dilution method; assay type: functional
# [2] = tested on: Enterobacter cloacae; assay: Potentiation of meropenem-induced antibacterial activity against VIM4 carbapenemase producing multidrug-resistant Enterobacter cloacae 102 clinical isolate assessed as MIC of meropenem at 1:8 meropenem:compound ratio by broth microtiter dilution method; assay type: functional
# [3] = tested on: Escherichia coli; assay: Potentiation of meropenem-induced antibacterial activity against VIM4 carbapenemase producing multidrug-resistant Escherichia coli 98 clinical isolate assessed as MIC of meropenem at 1:8 meropenem:compound ratio by broth microtiter dilution method; assay type: functional
# [4] = tested on: Klebsiella pneumoniae; assay: Potentiation of meropenem-induced antibacterial activity against VIM4 carbapenemase producing multidrug-resistant Klebsiella pneumoniae 120 clinical isolate assessed as MIC of meropenem at 1:8 meropenem:compound ratio by broth microtiter dilution method; assay type: functional
# [5] = tested on: Klebsiella pneumoniae; assay: Potentiation of meropenem-induced antibacterial activity against VIM4 carbapenemase producing multidrug-resistant Klebsiella pneumoniae 128 clinical isolate assessed as MIC of meropenem at 1:8 meropenem:compound ratio by broth microtiter dilution method; assay type: functional
# [6] = tested on: Providencia stuartii; assay: Potentiation of meropenem-induced antibacterial activity against VIM1 carbapenemase producing multidrug-resistant Providencia stuartii 70 clinical isolate at 1:8 meropenem:compound ratio by checkerboard method; assay type: functional
# [7] = tested on: Pseudomonas aeruginosa; assay: Potentiation of meropenem-induced antibacterial activity against VIM2 carbapenemase producing multidrug-resistant Pseudomonas aeruginosa 30 clinical isolate at 1:8 meropenem:compound ratio by checkerboard method; assay type: functional
# [8] = tested on: Providencia stuartii; assay: Potentiation of meropenem-induced antibacterial activity against VIM1 carbapenemase producing multidrug-resistant Providencia stuartii 67 clinical isolate assessed as MIC of meropenem at 1:8 meropenem:compound ratio by broth microtiter dilution method; assay type: functional
# [9] = tested on: Pseudomonas aeruginosa; assay: Potentiation of meropenem-induced antibacterial activity against VIM2 carbapenemase producing multidrug-resistant Pseudomonas aeruginosa 6 clinical isolate assessed as MIC of meropenem at 1:8 meropenem:compound ratio by broth microtiter dilution method; assay type: functional
# [10] = tested on: Pseudomonas aeruginosa; assay: Potentiation of meropenem-induced antibacterial activity against VIM2 carbapenemase producing multidrug-resistant Pseudomonas aeruginosa 12 clinical isolate assessed as MIC of meropenem at 1:8 meropenem:compound ratio by broth microtiter dilution method; assay type: functional
# [11] = Toxicity in Galleria mellonella larvae assessed as survival rate up to 80 mg/kg measured at 96 hrs; assay type: organism-based; details: in vivo
# [12] = tested on: Klebsiella pneumoniae; assay: Potentiation of meropenem-induced antibacterial activity against VIM4 carbapenemase producing multidrug-resistant Klebsiella pneumoniae 120 clinical isolate infected in Galleria mellonella larvae assessed as survival rate at 4.8 mg/kg measured at 96 hrs; assay type: functional; details: Klebsiella pneumoniae, 120, 96 h
# [13] = tested on: Pseudomonas aeruginosa; assay: Potentiation of meropenem-induced antibacterial activity against VIM2 carbapenemase producing multidrug-resistant Pseudomonas aeruginosa GR62 clinical isolate at 1:8 meropenem:compound ratio by checkerboard method; assay type: functional
# [14] = tested on: Pseudomonas aeruginosa; assay: Potentiation of meropenem-induced antibacterial activity against VIM2 carbapenemase producing multidrug-resistant Pseudomonas aeruginosa GR62 clinical isolate assessed as MIC of meropenem at 1:8 meropenem:compound ratio by broth microtiter dilution method; assay type: functional
# [15] = tested on: Klebsiella pneumoniae; assay: Antibacterial activity against VIM4 carbapenemase producing multidrug-resistant Klebsiella pneumoniae 120 clinical isolate infected in Galleria mellonella larvae assessed as survival rate at 4.8 mg/kg measured at 96 hrs; assay type: functional, organism-based
# [16] = tested on: Pseudomonas aeruginosa; assay: Potentiation of meropenem-induced antibacterial activity against VIM2 carbapenemase producing multidrug-resistant Pseudomonas aeruginosa GR57 clinical isolate infected in Galleria mellonella larvae assessed as survival rate at 4.8 mg/kg measured at 96 hrs; assay type: functional; details: GR57, 96 h
# [17] = tested on: Escherichia coli; assay: Antibacterial activity against VIM4 carbapenemase producing multidrug-resistant Escherichia coli 98 clinical isolate infected in Galleria mellonella larvae assessed as survival rate at 4.8 mg/kg measured at 96 hrs; assay type: functional, organism-based
# [18] = tested on: Pseudomonas aeruginosa; assay: Potentiation of meropenem-induced antibacterial activity against VIM2 carbapenemase producing multidrug-resistant Pseudomonas aeruginosa GR57 clinical isolate infected in Galleria mellonella larvae assessed as relative risk of survival at 4.8 mg/kg measured at 96 hrs relative to control; assay type: functional
# [19] = tested on: Pseudomonas aeruginosa; assay: Antibacterial activity against VIM2 carbapenemase producing multidrug-resistant Pseudomonas aeruginosa 30 clinical isolate up to 512 mg/L by broth microtiter dilution method; assay type: functional, organism-based
# [20] = tested on: Pseudomonas aeruginosa; assay: Antibacterial activity against VIM2 carbapenemase producing multidrug-resistant Pseudomonas aeruginosa 47 clinical isolate up to 512 mg/L by broth microtiter dilution method; assay type: functional, organism-based
# [21] = tested on: Pseudomonas aeruginosa; assay: Antibacterial activity against VIM2 carbapenemase producing multidrug-resistant Pseudomonas aeruginosa 50 clinical isolate up to 512 mg/L by broth microtiter dilution method; assay type: functional, organism-based
# [22] = tested on: Pseudomonas aeruginosa; assay: Antibacterial activity against VIM2 carbapenemase producing multidrug-resistant Pseudomonas aeruginosa GR58 clinical isolate up to 512 mg/L by broth microtiter dilution method; assay type: functional, organism-based
# [23] = tested on: Pseudomonas aeruginosa; assay: Antibacterial activity against VIM2 carbapenemase producing multidrug-resistant Pseudomonas aeruginosa 6 clinical isolate up to 512 mg/L by broth microtiter dilution method; assay type: functional, organism-based
# [24] = tested on: Pseudomonas aeruginosa; assay: Antibacterial activity against VIM2 carbapenemase producing multidrug-resistant Pseudomonas aeruginosa 14 clinical isolate up to 512 mg/L by broth microtiter dilution method; assay type: functional, organism-based
# [25] = tested on: Klebsiella pneumoniae; assay: Antibacterial activity against VIM4 carbapenemase producing multidrug-resistant Klebsiella pneumoniae 128 clinical isolate up to 512 mg/L by broth microtiter dilution method; assay type: functional, organism-based
# [26] = tested on: Klebsiella pneumoniae; assay: Antibacterial activity against VIM4 carbapenemase producing multidrug-resistant Klebsiella pneumoniae 196 clinical isolate up to 512 mg/L by broth microtiter dilution method; assay type: functional, organism-based
# [27] = tested on: Pseudomonas aeruginosa; assay: Potentiation of meropenem-induced antibacterial activity against VIM2 carbapenemase producing multidrug-resistant Pseudomonas aeruginosa GR64 clinical isolate at 1:8 meropenem:compound ratio by checkerboard method; assay type: functional
# [28] = tested on: Pseudomonas aeruginosa; assay: Potentiation of meropenem-induced antibacterial activity against VIM2 carbapenemase producing multidrug-resistant Pseudomonas aeruginosa 9 clinical isolate at 1:8 meropenem:compound ratio by checkerboard method; assay type: functional
# [29] = tested on: Pseudomonas aeruginosa; assay: Potentiation of meropenem-induced antibacterial activity against VIM2 carbapenemase producing multidrug-resistant Pseudomonas aeruginosa 15 clinical isolate at 1:8 meropenem:compound ratio by checkerboard method; assay type: functional
compound,measurement,setting,value
O=C(O)/C(S)=C/c1c(Cl)ccc(Cl)c1Cl,MIC,[1],2 µg/mL
same,MIC,[2],4 µg/mL
same,MIC,[3],2 µg/mL
same,MIC,[4],2 µg/mL
same,MIC,[5],1 µg/mL
same,fractional inhibitory concentration index (FICI),[6],0.14
same,fractional inhibitory concentration index (FICI),[7],0.25
same,MIC,[8],1 µg/mL
same,MIC,[9],16 µg/mL
same,MIC,[10],32 µg/mL
same,survival at 96 h,[11],100%
same,survival at 4.8 mg/kg,[12],98%
same,fractional inhibitory concentration index (FICI),[13],0.38
same,MIC,[14],8 µg/mL
same,Activity,[15],Active
same,survival at 4.8 mg/kg,[16],81%
same,Activity,[17],Active
same,fold change (FC),[18],0.28
same,Activity,[19],inactive
same,Activity,[20],inactive
same,Activity,[21],inactive
same,Activity,[22],inactive
same,Activity,[23],inactive
same,Activity,[24],inactive
same,Activity,[25],inactive
same,Activity,[26],inactive
same,fractional inhibitory concentration index (FICI),[27],0.19
same,fractional inhibitory concentration index (FICI),[28],0.38
same,fractional inhibitory concentration index (FICI),[29],0.5
